In patent US12516067B2, “Antagonists of the muscarinic acetylcholine receptor M4” (Vanderbilt University, priority 2020, dated 2026):

Target: T1, Human M4 (Homo sapiens, UniProt P08173)
T1 construct: expressed in transfected cells; host or cells: CHO-K1 (ATCC), co-transfected with chimeric G protein Gqi5
T1 sequence (P08173 1-479): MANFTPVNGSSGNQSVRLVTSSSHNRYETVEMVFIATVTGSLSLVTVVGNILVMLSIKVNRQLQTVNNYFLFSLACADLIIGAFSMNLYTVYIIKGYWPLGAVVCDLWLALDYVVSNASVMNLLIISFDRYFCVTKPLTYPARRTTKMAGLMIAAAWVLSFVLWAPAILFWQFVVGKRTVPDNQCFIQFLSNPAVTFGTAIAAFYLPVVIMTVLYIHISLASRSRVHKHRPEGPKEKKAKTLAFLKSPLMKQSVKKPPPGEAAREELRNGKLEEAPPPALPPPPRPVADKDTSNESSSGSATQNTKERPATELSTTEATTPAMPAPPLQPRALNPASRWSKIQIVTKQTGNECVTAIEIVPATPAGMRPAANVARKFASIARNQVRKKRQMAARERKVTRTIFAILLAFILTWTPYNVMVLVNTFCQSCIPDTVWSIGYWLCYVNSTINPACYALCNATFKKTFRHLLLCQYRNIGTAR
Assay: mAChR M4 cell-based functional assay (calcium flux, decrease of EC80 acetylcholine response) in M4/Gqi5/CHO-K1 cells
Conditions: CHO-K1 cells with human M4 and Gqi5; for remaining activity at 30 µM: % ACh maximum at 30 μM, read-out: Human M4 Emin; for IC50: antagonist mode: concentration-dependent decrease of response to EC80 acetylcholine
Protocol: Human or rat M4 cDNA, along with the chimeric G protein Gqi5, were transfected into Chinese hamster ovary (CHO-K1) cells purchased from the American Type Culture Collection using Lipofectamine2000. M4/Gqi5/CHO cells were grown in Ham's F-12 medium containing 10% heat-inactivated fetal bovine serum (FBS), 20 mM HEPES, 500 μg/mL G418 sulfate, and 200 μg/mL Hygromycin B.
For high throughput measurement of agonist-evoked increases in intracellular calcium, CHO-K1 cells stably expressing muscarinic receptors were plated in growth medium lacking G418 and hygromycin at 15,000 cells/20 μL/well in Greiner 384-well black-walled, tissue culture (TC)-treated, clear-bottom plates (VWR). Cells were incubated overnight at 37° C. and 5% CO2. The next day, cells were washed using an ELX 405 (BioTek) with assay buffer; the final volume was then aspirated to 20 μL. Next, 20 μL of a 2.3 μM stock of Fluo-4/acetoxymethyl ester (Invitrogen, Carlsbad, CA), prepared as a 2.3 mM stock in DMSO and mixed in a 1:1 ratio with 10% (w/v) Pluronic F-127 and diluted in assay buffer, was added to the wells and the cell plates were incubated for 50 min at 37° C. and 5% CO2. Dye was removed by washing with the ELX 405 and the final volume was aspirated to 20 μL. Compound master plates were formatted in a 10 point concentration-response curve (CRC) format (1:3 dilutions) in 100% DMSO with a starting concentration of 10 or 1 mM using a BRAVO liquid handler (Agilent). Test compound CRCs were then transferred to daughter plates (240 nL) using the Echo acoustic plate reformatter (Labcyte, Sunnyvale, CA) and then diluted into assay buffer (40 μL) to a 2× stock using a Thermo Fisher Combi (Thermo Fisher Scientific, Waltham, MA).
Calcium flux was measured using the Functional Drug Screening System (FDSS) 6000 or 7000 (Hamamatsu Corporation, Tokyo, Japan) as an increase in the fluorescent static ratio. Compounds were applied to cells (20 μL, 2×) using the automated system of the FDSS at 2 seconds into the protocol and the data were collected at 1 Hz. At 143 s, 10 μL of an EC20 concentration of the muscarinic receptor agonist acetylcholine was added (5×), followed by the addition of 12 μL of an EC80 concentration of acetylcholine at the 268 s time point (5×). Agonist activity was analyzed as a concentration-dependent increase in calcium mobilization upon compound addition. Positive allosteric modulator activity was analyzed as a concentration-dependent increase in the EC20 acetylcholine response. Antagonist activity was analyzed as a concentration-dependent decrease in the EC80 acetylcholine response; for the purposes of the tables herein, an IC50 (inhibitory concentration 50) was calculated as a concentration-dependent decrease of the response elicited by an EC80 concentration of acetylcholine. Concentration-response curves were generated using a four-parameter logistical equation in XLFit curve fitting software (IDBS, Bridgewater, NJ) for Excel (Microsoft, Redmond, WA) or Prism (GraphPad Software, Inc., San Diego, CA) or the Dotmatics software platform (Dotmatics, Bishop's Stortford, UK).
Compounds were synthesized as described above. Activity (IC50 and Emin) was determined in the mAChR M4 cell-based functional assay as described above and the data are shown in Table 1.

| remaining activity at 30 µM | IC50 | Structure (SMILES) |
| --- | --- | --- |
| 10% | 1480 nM | Cc1ccc(CN2CCc3c(CNc4ccc(-c5cc(F)ccc5Cl)nn4)csc3C2)nc1 [A12, 6-(2-chloro-5-fluorophenyl)-N-((6-((5-methylpyridin-2-yl)methyl)-4,5,6,7-tetrahydrothieno[2,3-c]pyridin-3-yl)methyl)pyridazin-3-amine] |
| 7% | 668 nM | FC1(F)CCN(c2ccc(NCc3csc4c3CCN(CC3CCOCC3)C4)nn2)CC1 [A6, 6-(4,4-difluoropiperidin-1-yl)-N-((6-((tetrahydro-2H-pyran-4-yl)methyl)-4,5,6,7-tetrahydrothieno[2,3-c]pyridin-3-yl)methyl)pyridazin-3-amine] |
| 3% | 595 nM | Fc1cc(F)c(F)c(-c2ccc(NCc3csc4c3CCN(CC3CCOCC3)C4)nn2)c1 [A1, N-((6-((tetrahydro-2H-pyran-4-yl)methyl)-4,5,6,7-tetrahydrothieno[2,3-c]pyridin-3-yl)methyl)-6-(2,3,5-trifluorophenyl)pyridazin-3-amine] |
| 11% | 1400 nM | O=S1(=O)CCCCN1c1ccc(NCc2csc3c2CCN(CC2CCOCC2)C3)nn1 [A8, 2-(6-(((6-((tetrahydro-2H-pyran-4-yl)methyl)-4,5,6,7-tetrahydrothieno[2,3-c]pyridin-3-yl)methyl)amino)pyridazin-3-yl)-1,2-thiazinane 1,1-dioxide] |
| 8% | 781 nM | Fc1ccc(F)c(-c2ccc(NCc3cccc4c3CCN(CC3CCOCC3)C4)nn2)c1 [B8, 6-(2,5-difluorophenyl)-N-((2-((tetrahydro-2H-pyran-4-yl)methyl)-1,2,3,4-tetrahydroisoquinolin-5-yl)methyl)pyridazin-3-amine] |
| 4% | 84.7 nM | CC(C)(C)CCN1CCc2c(CNc3ccc(-c4cc(F)ccc4Cl)nn3)csc2C1 [A10, 6-(2-chloro-5-fluorophenyl)-N-((6-(3,3-dimethylbutyl)-4,5,6,7-tetrahydrothieno[2,3-c]pyridin-3-y)methyl)pyridazin-3-amine] |
| 11% | 616 nM | Fc1cc(F)c(F)c(-c2ccc(NCc3cccc4c3CCN(CC3CCOCC3)C4)nn2)c1 [B7, N-((2-((tetrahydro-2H-pyran-4-yl)methyl)-1,2,3,4-tetrahydroisoquinolin-5-yl)methyl)-6-(2,3,5-trifluorophenyl)pyridazin-3-amine] |
| 12% | 2700 nM | CC(=O)Nc1ccc(-c2ccc(NCc3cccc4c3CCN(CC3CCOCC3)C4)nn2)cc1 [B11, N-(4-(6-(((2-((tetrahydro-2H-pyran-4-yl)methyl)-1,2,3,4-tetrahydroisoquinolin-5-yl)methyl)amino)pyridazin-3-yl)phenyl)acetamide] |
| 4% | 150 nM | [2H]C([2H])(C1CCOCC1)N1CCc2c(CNc3ccc(-c4cc(F)ccc4Cl)nn3)cccc2C1 [B13, 6-(2-chloro-5-fluorophenyl)-N-((2-((tetrahydro-2H-pyran-4-yl)methyl-d2)-1,2,3,4-tetrahydroisoquinolin-5-yl)methyl)pyridazin-3-amine] |
| 6% | 356 nM | Fc1ccc(Cl)c(-c2ccc(NCc3cccc4c3CCN(CC3CCOCC3)C4)nn2)c1 [B1, 6-(2-chloro-5-fluorophenyl)-N-((2-((tetrahydro-2H-pyran-4-yl)methyl)-1,2,3,4-tetrahydroisoquinolin-5-yl)methyl)pyridazin-3-amine] |
